From US4883791A, “25S,26-dihydroxycholecalciferol in the treatment of hypercalcitriolemic disease states” (Board of Regents, The University of Texas System, priority 1987, dated 1989)
“Also recorded” adds a separate entry of the source.

Columns and labels:
[1] = Effect of 25S,26(OH)2 D3 administration on 1,25(OH)2 D3 mediated increases in serum 1,25(OH)2 D3; format: in vivo, Sprague-Dawley rats (adult female); details: for serum 1,25(OH)2 D: mean ± SE
Source text: (§1) Adult female Sprague-Dawley rats weighing between 190-200 g were used in all studies and were purchased from Harlan (Houston, TX). The animals were housed in the animal resource facility and were fed a standard vitamin D-replete rat chow diet (2.0% calcium and 0.9% phorphorus, Tekland, Winfield, OH) ad lib. After four to five days of equlibration the animals were divided into appropriate study groups and injected subcutaneously each day with various doses of 25(S),26(OH)2 D3 or 1,25(OH)2 D3 metabolites. In some experiments, animals received both metabolites as two separate injections. Control animals received only vehicle (propylene glycol).
Two ml of serum was obtained for each rat for measurement of 25(S),26(OH)2 D3, and 1,25-(OH)2 D3. After spiking the samples with approximately 1200 cpm of radiolabeled 250HD3, 24,25-(OH)2 D3 and 1,25(OH)2 D3 and allowing the samples to equilibrate for 30 minutes, isolation of the vitamin D metabolites was accomplished as described in Bishop JE, Norman AW, Coburn JW, Roberts PA, Henry, HL 1980 "Determination of the concentration of 25-hydroxyvitamin D, 24,25-dihydroxyvitamin D and 1,25-dihydroxyvitamin D in a single two-milliliter plasma sample." Min Elect Metab 3: 181. Further separation and partial purification of the metabolites was effected with lipohilic Sephadex (Sigma, St. Louis, MO) liquid gel chromatography using a 9:1:1:0.015 (hexane:chloroform:methanol:H2 O) solvent system and a 10×1 cm gel bed as previously described by Eisman JA, Hamstra AJ, Kream BD, DeLuca HF, 1975, "A sensitive, precise and convenient method for determination of 1,25-dihydroxyvitamin D in human plasma." Arch Biochem Biophys 176: 235. This chromatographic system effectively separates 250HD (5-11 ml) from the dihydroxy metabolites (14-30 ml). The trihydroxy metabolite 1,25,26(OH)3 D is eluted from the column by changing the solvent system to 8:2:2:0.015 (hexane:chloroform:methanol:H2 O) after elution of the dihydroxy metabolites and collecting the next 12 ml.
Final resolution and purification of the vitamin D metabolites was performed with high pressure liquid chromatography as previously described in Zerwekh et al., 1983, "Extra-renal production of 24,25-dihydroxyvitaminD in chronic renal failure during 25-hydroxyvitamin D3 therapy." Kid Int. 23: 401 and Pak et al., 1982, "Effects of short-term glucocorticoid administration in primary hyperparathyroidism: comparison to sarcoidiosis J. Clin. Endrocrinol Metab. 54: 824. 250HD was purified on a 5% 2-propanol in hexane solvent system. The three dihydroxyvitamin D metabolites were isolated and purified using an 11% 2-propanol in hexane solvent system. The assay of 25S,26-(OH)2 D was performed using the rat serum vitamin D binding protein assay system described in Haddad JG, Chyu KF 1971 "competitive protein binding assay for 25-hydroxycholecalciferol." J Clin Endocrinol Metab 33: 992. The assay of 1,25(OH)2 D was accomplished using the chick intestinal receptor protein.
(§2) Values in parenthesis represent p value of significant difference between
(§3) dosed and control animals as determined by nonparametric analysis and
(§4) Welch's approximation to the t test. All values expressed as mean ± SE
(§5) for seven rats per group.
(§6) ^a 1,25(OH)2 D3 administered subcutaneously at a dose of
(§7) 0.15 μg/d/rat for three days
(§8) ^b 25S,26(OH)2 D3 administered subcutaneously for seven day
(§9) at a dose of 20 μg/d/rat; on days 5, 6, and 7 both 25S,26(OH)2
(§10) D3 and 1,25(OH)2 D3 (0.15 μg/d/rat) were given as two

[2] = Serum 25S,26(OH)2 D level after administration (rat serum vitamin D binding protein assay); format: in vivo, Sprague-Dawley rats (adult female); details: mean ± SE
Source text: as §1
Two ml of serum was obtained for each rat for measurement of 25(S),26(OH)2 D3, and 1,25-(OH)2 D3. […] This chromatographic system effectively separates 250HD (5-11 ml) from the dihydroxy metabolites (14-30 ml). The trihydroxy metabolite 1,25,26(OH)3 D is eluted from the column by changing the solvent system to 8:2:2:0.015 (hexane:chloroform:methanol:H2 O) after elution of the dihydroxy metabolites and collecting the next 12 ml.
250HD was purified on a 5% 2-propanol in hexane solvent system. The three dihydroxyvitamin D metabolites were isolated and purified using an 11% 2-propanol in hexane solvent system. […] The assay of 1,25(OH)2 D was accomplished using the chick intestinal receptor protein.
as §2, §3, §4, §5, §6, §7, §8, §9, §10

serum 25S,26(OH)2 D ([2]; Exp. 1, 25S,26(OH)2 D3 20 μg/d/rat s.c. seven days + 1,25(OH)2 D3 0.15 μg/d/rat days 5, 6, 7, control 1.9 ± 0.2, p < 0.001) [ng/mL]	serum 25S,26(OH)2 D ([2]; Exp. 2, 25S,26(OH)2 D3 + 1,25(OH)2 D3 s.c., seven rats, control 2.0 ± 0.2, p < 0.01) [ng/mL]	serum 25S,26(OH)2 D ([2]; Exp. 3, 25S,26(OH)2 D3 + 1,25(OH)2 D3 s.c., seven rats, control 1.20 ± 0.1, p < 0.006) [ng/mL]	Structure (SMILES)	serum 1,25(OH)2 D ([1]; Exp. 1, 1,25(OH)2 D3 alone, 0.15 μg/d/rat s.c., three days, seven rats, control 25 ± 3, p < 0.001) [pg/mL]	serum 1,25(OH)2 D ([1]; Exp. 2, 1,25(OH)2 D3 alone s.c., seven rats, control 23 ± 3, p = 0.006) [pg/mL]	serum 1,25(OH)2 D ([1]; Exp. 3, 1,25(OH)2 D3 alone s.c., seven rats, control 27 ± 4, p < 0.001) [pg/mL]	serum 25S,26(OH)2 D ([2]; Exp. 1, 1,25(OH)2 D3 alone, 0.15 μg/d/rat s.c., three days, seven rats, control 1.9 ± 0.2) [ng/mL]	serum 25S,26(OH)2 D ([2]; Exp. 2, 1,25(OH)2 D3 alone s.c., seven rats, control 2.0 ± 0.2) [ng/mL]	serum 25S,26(OH)2 D ([2]; Exp. 3, 1,25(OH)2 D3 alone s.c., seven rats, control 1.20 ± 0.1) [ng/mL]	serum 1,25(OH)2 D ([1]; Exp. 1, 25S,26(OH)2 D3 20 μg/d/rat s.c. seven days + 1,25(OH)2 D3 0.15 μg/d/rat days 5, 6, 7, control 25 ± 3) [pg/mL]	serum 1,25(OH)2 D ([1]; Exp. 2, 25S,26(OH)2 D3 + 1,25(OH)2 D3 s.c., seven rats, control 23 ± 3) [pg/mL]	serum 1,25(OH)2 D ([1]; Exp. 3, 25S,26(OH)2 D3 + 1,25(OH)2 D3 s.c., seven rats, control 27 ± 4) [pg/mL]	reduction of serum / endogenous 1,25-dihydroxycholecalciferol ([1]; result in words)
–	–	–	C=C1/C(=C\C=C2/CCC[C@]3(C)[C@@H]([C@H](C)CCCC(C)(C)O)CC[C@@H]23)C[C@@H](O)C[C@@H]1O [1,25(OH)2 D3, 1α,25-dihydroxycholecalciferol, reference compound]	206 ± 17	175 ± 52	180 ± 45	3.0 ± 0.8	3.20 ± 0.3	0.9 ± 0.3	–	–	–	–
295 ± 7	168 ± 14	236 ± 28	C=C1CC[C@H](O)C/C1=C/C=C1\CCC[C@]2(C)[C@@H]([C@H](C)CCC[C@](C)(O)CO)CC[C@@H]12 [25S,26(OH)2 D3, 25S,26-dihydroxycholecalciferol]	–	–	–	–	–	–	59 ± 3	46 ± 4	38 ± 6	lowers endogenous levels of 1α,25-dihydroxycholecalciferol; also recorded: active in reducing serum concentrations of 1,25-dihydroxycholecalciferol
